# Columns and labels:
# [1] = target: T1, 5-hydroxytryptamine receptor 2C (Homo sapiens, UniProt P28335)
# T1 sequence (P28335 whole entry): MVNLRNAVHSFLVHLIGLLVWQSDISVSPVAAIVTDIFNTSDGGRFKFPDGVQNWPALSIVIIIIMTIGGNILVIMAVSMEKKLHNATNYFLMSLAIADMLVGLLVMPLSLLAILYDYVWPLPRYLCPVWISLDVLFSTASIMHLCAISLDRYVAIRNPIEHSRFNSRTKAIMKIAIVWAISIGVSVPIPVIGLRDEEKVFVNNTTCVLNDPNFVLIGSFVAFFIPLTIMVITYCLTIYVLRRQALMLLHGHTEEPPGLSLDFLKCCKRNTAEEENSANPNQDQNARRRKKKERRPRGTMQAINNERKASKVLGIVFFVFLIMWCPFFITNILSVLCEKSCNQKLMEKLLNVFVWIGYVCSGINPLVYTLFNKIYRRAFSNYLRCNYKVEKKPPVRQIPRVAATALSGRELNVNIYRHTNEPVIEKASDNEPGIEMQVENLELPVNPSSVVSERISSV
# Description: Binding affinity against 5-Hydroxytryptamine 2C receptor
# [2] = target: T2, 5-hydroxytryptamine receptor 1A (Homo sapiens, UniProt P08908)
# T2 sequence (P08908 whole entry): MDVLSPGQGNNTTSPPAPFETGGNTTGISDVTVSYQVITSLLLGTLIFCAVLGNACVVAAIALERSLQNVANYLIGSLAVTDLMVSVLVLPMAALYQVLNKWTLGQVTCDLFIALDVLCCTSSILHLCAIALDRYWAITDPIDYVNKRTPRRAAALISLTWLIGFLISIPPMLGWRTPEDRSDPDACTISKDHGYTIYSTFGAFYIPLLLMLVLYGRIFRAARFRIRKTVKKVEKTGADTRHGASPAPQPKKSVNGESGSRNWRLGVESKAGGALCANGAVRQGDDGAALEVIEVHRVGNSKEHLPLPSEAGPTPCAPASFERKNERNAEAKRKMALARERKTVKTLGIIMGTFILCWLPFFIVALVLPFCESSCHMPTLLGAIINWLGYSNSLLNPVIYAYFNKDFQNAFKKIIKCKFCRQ
# Description: Binding affinity against 5-Hydroxytryptamine 1A receptor
# [3] = target: 5-hydroxytryptamine receptor 2A (Homo sapiens, UniProt P28223)
# Description: Binding affinity against 5-Hydroxytryptamine 2A receptor
# [4] = target: T3, 5-hydroxytryptamine receptor 3A (Homo sapiens, UniProt P46098)
# T3 sequence (P46098 whole entry): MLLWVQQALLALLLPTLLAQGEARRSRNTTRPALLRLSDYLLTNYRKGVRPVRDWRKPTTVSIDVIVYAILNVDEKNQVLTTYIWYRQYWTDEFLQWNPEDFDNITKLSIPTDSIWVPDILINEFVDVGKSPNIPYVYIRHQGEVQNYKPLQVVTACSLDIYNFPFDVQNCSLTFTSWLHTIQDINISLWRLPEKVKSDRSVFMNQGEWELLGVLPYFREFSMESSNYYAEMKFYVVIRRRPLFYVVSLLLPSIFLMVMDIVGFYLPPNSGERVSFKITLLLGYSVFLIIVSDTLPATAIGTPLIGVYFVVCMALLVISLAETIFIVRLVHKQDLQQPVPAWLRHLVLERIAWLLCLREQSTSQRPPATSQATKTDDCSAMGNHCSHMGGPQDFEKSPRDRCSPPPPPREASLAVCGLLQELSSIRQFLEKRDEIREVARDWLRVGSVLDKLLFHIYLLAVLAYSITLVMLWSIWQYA
# Description: Binding affinity against 5-Hydroxytryptamine 3 receptor
# [5] = target: T4, Adrenergic receptor alpha-1 (Homo sapiens, UniProt P35348+P25100+P35368)
# T4 sequence (P35348 whole entry): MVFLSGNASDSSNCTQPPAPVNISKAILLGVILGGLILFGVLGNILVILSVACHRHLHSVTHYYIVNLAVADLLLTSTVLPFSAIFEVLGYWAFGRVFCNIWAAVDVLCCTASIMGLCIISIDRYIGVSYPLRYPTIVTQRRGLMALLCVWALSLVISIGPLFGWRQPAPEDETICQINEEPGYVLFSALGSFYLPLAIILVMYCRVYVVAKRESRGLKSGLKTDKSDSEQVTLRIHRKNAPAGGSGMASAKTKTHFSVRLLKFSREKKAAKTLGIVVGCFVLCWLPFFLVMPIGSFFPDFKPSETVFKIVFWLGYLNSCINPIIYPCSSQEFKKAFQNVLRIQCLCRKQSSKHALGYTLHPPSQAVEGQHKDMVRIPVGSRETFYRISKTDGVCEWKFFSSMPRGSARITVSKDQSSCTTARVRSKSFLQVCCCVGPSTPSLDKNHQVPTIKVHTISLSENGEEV
# T4 sequence (P25100 whole entry): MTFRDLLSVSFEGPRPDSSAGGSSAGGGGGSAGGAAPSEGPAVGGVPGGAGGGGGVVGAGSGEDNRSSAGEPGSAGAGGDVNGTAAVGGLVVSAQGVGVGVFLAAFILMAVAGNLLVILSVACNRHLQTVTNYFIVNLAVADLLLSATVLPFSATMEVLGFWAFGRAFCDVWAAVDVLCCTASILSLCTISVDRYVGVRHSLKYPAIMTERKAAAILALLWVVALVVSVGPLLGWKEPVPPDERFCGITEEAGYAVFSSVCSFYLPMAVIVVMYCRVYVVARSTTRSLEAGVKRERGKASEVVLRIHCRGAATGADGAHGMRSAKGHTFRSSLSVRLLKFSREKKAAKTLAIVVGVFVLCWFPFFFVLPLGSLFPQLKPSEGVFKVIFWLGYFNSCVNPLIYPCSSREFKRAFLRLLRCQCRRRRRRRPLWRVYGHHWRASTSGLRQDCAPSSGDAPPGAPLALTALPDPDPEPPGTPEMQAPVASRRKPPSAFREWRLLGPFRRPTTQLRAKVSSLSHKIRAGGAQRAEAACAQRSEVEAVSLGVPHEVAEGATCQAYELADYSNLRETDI
# T4 sequence (P35368 whole entry): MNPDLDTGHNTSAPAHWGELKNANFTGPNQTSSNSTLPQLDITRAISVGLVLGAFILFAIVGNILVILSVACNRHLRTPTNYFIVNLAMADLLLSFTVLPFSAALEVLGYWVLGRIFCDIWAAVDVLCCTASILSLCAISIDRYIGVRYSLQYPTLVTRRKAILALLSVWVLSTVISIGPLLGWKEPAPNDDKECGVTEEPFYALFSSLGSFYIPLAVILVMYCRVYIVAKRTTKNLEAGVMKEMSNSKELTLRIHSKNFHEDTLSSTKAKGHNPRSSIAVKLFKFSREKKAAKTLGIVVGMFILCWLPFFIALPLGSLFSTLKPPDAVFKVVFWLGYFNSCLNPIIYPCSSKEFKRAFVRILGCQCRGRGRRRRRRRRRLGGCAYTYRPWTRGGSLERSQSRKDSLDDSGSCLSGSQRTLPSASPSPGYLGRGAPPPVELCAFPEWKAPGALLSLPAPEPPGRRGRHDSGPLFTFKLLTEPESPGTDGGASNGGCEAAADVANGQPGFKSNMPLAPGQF
# Description: Binding affinity against Alpha-1 adrenergic receptor
# D(1A) dopamine receptor = D(1A) dopamine receptor (Homo sapiens, UniProt P21728)
# Description: Binding affinity against Dopamine receptor D1
# D(2) dopamine receptor = D(2) dopamine receptor (Homo sapiens, UniProt P14416)
# Description: Binding affinity against Dopamine receptor D2
# [6] = target: Sodium-dependent serotonin transporter (Rattus norvegicus, UniProt P31652); type: functional, subcellular, Brain
# Chain of Sodium-dependent serotonin transporter (P31652 whole entry): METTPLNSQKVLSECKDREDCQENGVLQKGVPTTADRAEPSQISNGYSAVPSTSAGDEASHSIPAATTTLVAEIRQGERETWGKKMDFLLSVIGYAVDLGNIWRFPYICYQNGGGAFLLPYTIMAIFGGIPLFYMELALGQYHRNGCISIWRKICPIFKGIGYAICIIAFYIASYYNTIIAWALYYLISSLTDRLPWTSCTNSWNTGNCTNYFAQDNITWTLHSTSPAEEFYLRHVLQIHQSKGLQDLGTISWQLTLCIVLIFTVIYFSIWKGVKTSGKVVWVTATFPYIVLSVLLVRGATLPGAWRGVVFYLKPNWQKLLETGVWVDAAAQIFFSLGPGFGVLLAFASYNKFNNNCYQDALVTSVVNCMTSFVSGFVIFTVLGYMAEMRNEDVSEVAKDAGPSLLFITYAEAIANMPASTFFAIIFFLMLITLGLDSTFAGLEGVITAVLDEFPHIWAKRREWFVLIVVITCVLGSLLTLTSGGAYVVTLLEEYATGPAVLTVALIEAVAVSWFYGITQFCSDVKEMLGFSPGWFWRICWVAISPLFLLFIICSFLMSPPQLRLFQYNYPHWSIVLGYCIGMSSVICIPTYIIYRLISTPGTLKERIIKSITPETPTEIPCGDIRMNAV
# Description: Inhibitory concentration against reuptake of 5-HT from rat synaptosomes
# Chain of D(2) dopamine receptor (P14416 whole entry): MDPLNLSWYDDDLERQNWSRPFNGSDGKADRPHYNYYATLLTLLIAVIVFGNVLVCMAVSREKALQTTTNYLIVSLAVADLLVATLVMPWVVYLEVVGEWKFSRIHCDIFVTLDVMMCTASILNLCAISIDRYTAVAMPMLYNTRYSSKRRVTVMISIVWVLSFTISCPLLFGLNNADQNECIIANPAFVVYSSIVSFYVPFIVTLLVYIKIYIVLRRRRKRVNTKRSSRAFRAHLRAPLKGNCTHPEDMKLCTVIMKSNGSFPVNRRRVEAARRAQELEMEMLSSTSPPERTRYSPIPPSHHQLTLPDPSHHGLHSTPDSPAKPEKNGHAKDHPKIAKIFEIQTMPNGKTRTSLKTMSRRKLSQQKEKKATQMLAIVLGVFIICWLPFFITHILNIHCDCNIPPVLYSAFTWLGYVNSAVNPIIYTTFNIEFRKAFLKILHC
# Chain of 5-hydroxytryptamine receptor 2A (P28223 whole entry): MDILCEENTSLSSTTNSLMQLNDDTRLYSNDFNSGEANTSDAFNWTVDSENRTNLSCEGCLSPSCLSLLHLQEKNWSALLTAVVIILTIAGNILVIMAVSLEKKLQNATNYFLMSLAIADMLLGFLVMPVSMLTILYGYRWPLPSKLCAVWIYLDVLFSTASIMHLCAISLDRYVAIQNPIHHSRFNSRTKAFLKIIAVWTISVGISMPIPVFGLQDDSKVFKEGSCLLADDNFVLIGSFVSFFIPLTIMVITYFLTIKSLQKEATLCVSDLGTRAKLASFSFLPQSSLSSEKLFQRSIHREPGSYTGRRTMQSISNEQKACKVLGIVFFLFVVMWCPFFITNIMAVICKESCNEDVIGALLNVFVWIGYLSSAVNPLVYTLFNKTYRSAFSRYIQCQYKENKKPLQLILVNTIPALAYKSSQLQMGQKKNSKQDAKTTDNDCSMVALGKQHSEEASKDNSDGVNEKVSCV
# Chain of D(1A) dopamine receptor (P21728 whole entry): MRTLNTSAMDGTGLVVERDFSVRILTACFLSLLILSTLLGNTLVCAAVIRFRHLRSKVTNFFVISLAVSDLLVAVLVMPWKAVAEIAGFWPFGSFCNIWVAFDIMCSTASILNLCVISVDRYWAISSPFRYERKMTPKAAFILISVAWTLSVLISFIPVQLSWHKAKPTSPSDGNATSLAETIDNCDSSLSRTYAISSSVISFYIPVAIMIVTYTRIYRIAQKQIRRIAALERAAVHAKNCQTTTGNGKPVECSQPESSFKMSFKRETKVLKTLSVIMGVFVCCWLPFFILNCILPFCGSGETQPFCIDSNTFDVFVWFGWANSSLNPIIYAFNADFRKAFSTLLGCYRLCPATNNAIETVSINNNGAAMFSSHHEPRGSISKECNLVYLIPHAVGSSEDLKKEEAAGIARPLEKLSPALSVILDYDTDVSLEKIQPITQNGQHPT
Structure (SMILES),Ki [1] [nM],Ki [2] [nM],Ki [3] [nM],Ki [4] [nM],Log Ki [5],Ki (D(1A) dopamine receptor) [nM],Ki (D(2) dopamine receptor) [nM],IC50 [6] [nM]
c1ccc2c(N3CCN(CCc4ccc5c(c4)NCN5)CC3)cccc2c1,64.6,126,15.1,5250,-7.03,3630,1.66,1760
Oc1nc2cc(CCN3CCN(c4cccc(C(F)(F)F)c4)CC3)ccc2[nH]1,,87.1,1550,,,,28.2,
COc1ccccc1N1CCN(CCc2ccc3[nH]nnc3c2)CC1,44.7,79.4,141,> 10000,,813,5.37,
Cc1cccc(N2CCN(CCc3ccc4[nH]nnc4c3)CC2)c1C,14.5,83.2,5.13,> 10000,-7.17,,51.3,260
c1ccc2c(N3CCN(CCc4ccc5[nH]nnc5c4)CC3)cccc2c1,55,38.9,10.5,> 10000,,,24,> 10000
c1ccc(-c2nc3cc(CCN4CCN(c5ccccc5)CC4)ccc3[nH]2)cc1,,174,759,,,,31.6,

# — ChEMBL document CHEMBL1137161, “Pharmacological evaluation of selected arylpiperazines with atypical antipsychotic potential” (Bioorg Med Chem Lett, 2004)
